Test results as given in ChEMBL document CHEMBL1149595, “Novel isomarabarican triterpenes, exhibiting selective anti-proliferative activity against vascular endothelial cells, from marine sponge Rhabdastrella globostellata” (Bioorg Med Chem, 2007).
Active and inactive are the calls of the source. The calls are words filed in the database; no cut-off is given here.

Tests used:
[1] = Growth inhibition of KB3-1 cells after 72 hrs; type: functional, cell-based; settings: Homo sapiens, KB 3-1, 72 h
[2] = system: K562; assay: Growth inhibition of K562 cells after 72 hrs; type: functional, cell-based; settings: Homo sapiens, K562, 72 h
[3] = Growth inhibition of Neuro2A cells after 72 hrs; type: functional, cell-based; settings: N2a
[4] = system: HUVEC; assay: Growth inhibition of HUVEC cells after 72 hrs; type: functional, cell-based; settings: Homo sapiens
[5] = system: HUVEC; assay: Selectivity index, ratio of IC50 for Neuro2A cells to IC50 for HUVEC cells; type: functional, Homo sapiens
[6] = system: HUVEC; assay: Selectivity index, ratio of IC50 for KB3-1 cells to IC50 for HUVEC cells; type: functional, Homo sapiens
[7] = system: K562; assay: Selectivity index, ratio of IC50 for K562 cells to IC50 for HUVEC cells; type: functional, Homo sapiens
[8] = system: KB 3-1; assay: Induction of apoptosis assessed as activation of caspase 3 in KB3-1 cells at 10 uM; type: functional, cell-based; settings: Homo sapiens
[9] = system: HUVEC; assay: Induction of apoptosis assessed as activation of caspase 3 in HUVEC cells at 10 uM after 48 hrs; type: functional, Homo sapiens
[10] = system: HUVEC; assay: Induction of apoptosis assessed as activation of caspase 3 in HUVEC cells at 1 uM after 48 hrs; type: functional, Homo sapiens
[11] = biological target: Mitogen-activated protein kinase 1 (Homo sapiens) (UniProt P28482); assay: Inhibition of VEGF-induced ERK2 phosphorylation in HUVEC cells after 6 hrs by immunoblotting; type: cell-based
[12] = system: HUVEC; assay: Inhibition of VEGF-induced cell migration in HUVEC at 0.3 uM after 12 hrs; type: functional, cell-based; settings: Homo sapiens
[13] = system: HUVEC; assay: Induction of apoptosis assessed as activation of caspase 7 in HUVEC cells at 1 uM after 48 hrs; type: functional, Homo sapiens
[14] = system: HUVEC; assay: Induction of apoptosis assessed as activation of caspase 3 in HUVEC cells at 1 uM after 60 hrs; type: functional, Homo sapiens
[15] = Growth inhibition of HUVEC at 10 uM; type: cell-based; settings: human, HUVEC cells
[16] = system: KB 3-1; assay: Induction of apoptosis assessed as activation of caspase 7 in KB3-1 cells at 10 uM; type: functional, cell-based; settings: Homo sapiens
[17] = Growth inhibition of HUVEC at 1 uM; type: cell-based; settings: human, HUVEC cells
[18] = system: HUVEC; assay: Induction of apoptosis assessed as activation of caspase 7 in HUVEC cells at 10 uM after 60 hrs; type: functional, Homo sapiens
[19] = system: HUVEC; assay: Induction of apoptosis assessed as activation of caspase 7 in HUVEC cells at 1 uM after 60 hrs; type: functional, Homo sapiens
[20] = system: HUVEC; assay: Inhibition of VEGF-induced cell migration in HUVEC at 1.0 uM after 12 hrs; type: functional, cell-based; settings: Homo sapiens
[21] = biological target: Mitogen-activated protein kinase 3 (Homo sapiens) (UniProt P27361); assay: Inhibition of VEGF-induced ERK1 phosphorylation in HUVEC cells after 6 hrs by immunoblotting; type: cell-based
[22] = system: HUVEC; assay: Induction of apoptosis assessed as activation of caspase 3 in HUVEC cells at 10 uM after 60 hrs; type: functional, Homo sapiens
[23] = system: HUVEC; assay: Induction of apoptosis assessed as activation of caspase 7 in HUVEC cells at 10 uM after 48 hrs; type: functional, Homo sapiens

Mitogen-activated protein kinase 1 (Homo sapiens), sequence (P28482 whole entry): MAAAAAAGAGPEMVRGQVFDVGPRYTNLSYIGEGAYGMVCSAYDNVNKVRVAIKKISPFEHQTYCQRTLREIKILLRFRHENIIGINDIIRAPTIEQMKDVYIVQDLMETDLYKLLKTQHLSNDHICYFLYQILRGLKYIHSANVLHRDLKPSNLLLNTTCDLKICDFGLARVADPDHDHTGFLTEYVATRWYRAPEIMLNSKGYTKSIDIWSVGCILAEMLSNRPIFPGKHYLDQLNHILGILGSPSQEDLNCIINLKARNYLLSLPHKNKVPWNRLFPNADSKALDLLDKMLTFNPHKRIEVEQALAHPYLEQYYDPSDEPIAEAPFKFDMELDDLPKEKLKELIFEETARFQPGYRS
Mitogen-activated protein kinase 3 (Homo sapiens), sequence (P27361 whole entry): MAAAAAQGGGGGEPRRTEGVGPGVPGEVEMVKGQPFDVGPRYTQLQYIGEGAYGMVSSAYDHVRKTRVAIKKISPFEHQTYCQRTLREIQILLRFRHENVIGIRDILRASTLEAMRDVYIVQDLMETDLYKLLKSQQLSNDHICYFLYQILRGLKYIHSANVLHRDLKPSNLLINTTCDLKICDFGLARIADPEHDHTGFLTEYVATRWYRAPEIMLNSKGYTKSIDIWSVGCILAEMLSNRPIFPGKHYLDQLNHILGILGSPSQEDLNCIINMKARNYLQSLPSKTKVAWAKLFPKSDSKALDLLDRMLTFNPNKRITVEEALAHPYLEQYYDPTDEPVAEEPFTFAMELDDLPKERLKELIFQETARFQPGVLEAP

IC50 [2] [µM] | Structure (SMILES) | IC50 [1] [µM] | IC50 [3] [µM] | IC50 [4] [µM] | Ratio IC50 [5] | Ratio IC50 [6] | Ratio IC50 [7] | other results
53 | COC(=O)[C@]1(C)[C@@H]2CC[C@]3(C)C(C(C)CCCC(C)CCCC(C)C)C(=O)C[C@H]3[C@@]2(C)CC[C@H]1OC(C)=O (stereo partly specified) | > 100 | 80 | > 100 | – | – | – | –
9 | COC(=O)[C@]1(C)[C@@H]2CC[C@]3(C)/C(=C(C)/C=C/C=C(C)/C=C/C=C(C)C)C(=O)C[C@H]3[C@@]2(C)CC[C@H]1OC(C)=O | 3.1 | 3.2 | 0.064 | 50 | 48 | 141 | –
22 | COC(=O)[C@]1(C)[C@@H]2CC[C@]3(C)\C(=C(C)/C=C/C=C(C)\C=C\C=C(C)C)C(=O)C[C@H]3[C@@]2(C)CC[C@H]1OC(C)=O | 18 | 4.7 | 0.06 | 75 | 200 | 360 | –
23 | COC(=O)[C@]1(C)[C@@H]2CC[C@]3(C)\C(=C(C)/C=C/C=C(C)/C=C/C=C(C)C)C(=O)C[C@H]3[C@@]2(C)CC[C@H]1OC(C)=O | 14 | 7.5 | – | 83 | – | 256 | Activity [8]: inactive; Fold change [9]: 5; Fold change [10]: 5; Activity [11]: inactive; Activity [12]: Active; Fold change [13]: 17; Fold change [14]: 13; inhibition at 10 µM [15]: > 90%; Activity [16]: inactive; inhibition at 1 µM [17]: > 90%; Fold change [18]: 45; Fold change [19]: 45; Activity [20]: Active; Activity [21]: inactive; Fold change [22]: 13; Fold change [23]: 17
32 | CC(=O)O[C@@H]1CC[C@@]2(C)[C@@H](CC[C@]3(C)/C(=C(C)/C=C/C=O)C(=O)C[C@@H]23)[C@@]1(C)C(=O)O [ACETYLJASPIFERAL E] | 28 | 34 | 2.2 | 14 | 13 | 15 | –

Continued, molecule first:

Structure (SMILES) | IC50 [2] [µM] | IC50 [1] [µM] | IC50 [3] [µM] | IC50 [4] [µM] | Ratio IC50 [5] | Ratio IC50 [6] | Ratio IC50 [7] | other results
COC(=O)[C@]1(C)[C@@H]2CC[C@]3(C)\C(=C(C)/C=C/C=C(\C)C(/C=C/C(C)(C)O)OC)C(=O)C[C@H]3[C@@]2(C)CC[C@H]1OC(C)=O (stereo partly specified) | 9.3 | 6.5 | 6 | 1.1 | 6 | 6 | 9 | –
COC(=O)[C@]1(C)[C@@H]2CC[C@]3(C)\C(=C(C)/C=C/C=C(C)/C=C/C=O)C(=O)C[C@H]3[C@@]2(C)CC[C@H]1OC(C)=O [ACETYLJASPIFERAL B METHYL ESTER] | 7.8 | 16 | 22 | 0.78 | 28 | 20 | 10 | –
COC(=O)[C@]1(C)[C@@H]2CC[C@]3(C)\C(=C(C)/C=C/C=C(C)/C=C/C(O)C(C)(C)O)C(=O)C[C@H]3[C@@]2(C)CC[C@H]1OC(C)=O (stereo partly specified) [GLOBOSTELLATIC ACID F METHYL ESTER] | 12 | 8.6 | 5 | 0.98 | 5 | 9 | 12 | –
COC(=O)[C@]1(C)[C@@H]2CC[C@]3(C)/C(=C(C)/C=C/C=C(C)\C=C\C=C(C)C)C(=O)C[C@H]3[C@@]2(C)CC[C@H]1OC(C)=O | 22 | 9.8 | 7.9 | 0.4 | 19 | 25 | 55 | –
COC(=O)[C@@]1(C)[C@H](O)CC[C@@]2(C)[C@H]1CC[C@]1(C)\C(=C(C)/C=C/C=C(C)/C=C/C=C(C)C)C(=O)C[C@@H]21 | 5.2 | 4.9 | 5.9 | 0.19 | 31 | 25 | 27 | –
